# Laboratory results: ChEMBL document CHEMBL1201862, “PubChem BioAssay data set” (2004)
# Activity calls are given as the source filed them.
# How the values were obtained:
# [1] = target: Long-chain-fatty-acid--AMP ligase FadD28 (Mycobacterium tuberculosis, UniProt P9WQ59); assay: Fluorescence polarization aasay to screen for inhibitors that compete for the binding of FadD28 to a bisubstrate Measured in Biochemical System Using Plate Reader - 2147-01_Inhibitor_Dose_CherryPick_Activity.; format: functional, Mycobacterium tuberculosis H37Rv
# [2] = cytotoxicity in HEK293 background cells – cell-based, dry powder, set 2, counter-screen for EBV LMP1 inhibitor project, dose response (AID 624374); format: functional
# [3] = viability loss in HepG2 hepatoma cells – cell-based, ATP luminescence, cherry-pick, activator set 2, cytotoxicity control, dose response (AID 1053143); format: functional
# [4] = inhibition of ADAM10 peptide cleavage – biochemical, FRET peptide substrate, recombinant human ADAM10, selectivity assay for ADAM17 exosite inhibitor project, dose response (AID 743259);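 also: ADAM10 enzyme cleaving a FRET peptide substrate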
# [5] = target: Disintegrin and metalloproteinase domain-containing protein 17 (Homo sapiens, UniProt P78536); assay: exosite inhibitors of ADAM17, dose response, biochemical (AID 743260)
# Chain of Disintegrin and metalloproteinase domain-containing protein 17 (P78536 whole entry, the tested form may be a part): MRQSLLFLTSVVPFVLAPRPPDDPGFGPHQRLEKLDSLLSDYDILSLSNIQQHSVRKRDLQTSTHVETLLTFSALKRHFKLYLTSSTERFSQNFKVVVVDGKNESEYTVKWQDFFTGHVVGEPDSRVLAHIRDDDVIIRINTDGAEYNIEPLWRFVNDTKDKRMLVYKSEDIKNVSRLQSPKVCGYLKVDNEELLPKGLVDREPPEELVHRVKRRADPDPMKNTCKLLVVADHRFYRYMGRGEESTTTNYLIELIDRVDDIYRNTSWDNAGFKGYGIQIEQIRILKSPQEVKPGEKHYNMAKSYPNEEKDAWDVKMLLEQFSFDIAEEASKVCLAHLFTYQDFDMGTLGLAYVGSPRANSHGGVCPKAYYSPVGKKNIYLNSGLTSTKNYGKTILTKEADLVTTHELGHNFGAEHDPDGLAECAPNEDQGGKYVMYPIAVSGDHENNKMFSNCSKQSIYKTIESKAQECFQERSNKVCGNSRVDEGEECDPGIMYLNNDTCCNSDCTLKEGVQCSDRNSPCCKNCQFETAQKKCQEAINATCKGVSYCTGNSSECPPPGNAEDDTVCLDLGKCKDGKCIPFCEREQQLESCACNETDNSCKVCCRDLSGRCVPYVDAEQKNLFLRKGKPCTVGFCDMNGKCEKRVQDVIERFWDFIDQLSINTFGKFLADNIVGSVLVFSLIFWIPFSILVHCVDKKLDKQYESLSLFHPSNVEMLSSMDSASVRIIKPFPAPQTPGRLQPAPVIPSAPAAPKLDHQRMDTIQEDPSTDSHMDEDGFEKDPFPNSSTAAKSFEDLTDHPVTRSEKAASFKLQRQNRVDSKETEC
# [6] = cytotoxicity in MITF-independent A375 cells – cell-based, CellTiter-Glo luminescence, dry powder, set 4, counter-screen for MITF inhibitor project, dose response (AID 624364); format: functional; details: A-375;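 also: A375 melanoma cells are MITF independent so this is a counter screen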
# [7] = viability loss in MITF-independent A375 cells – cell-based, CellTiter-Glo luminescence, dry powder, set 2, counter-screen for MITF inhibitor project, dose response (AID 624489); format: functional; details: A-375;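 also: actives are compounds lowering A375 viability meaning general cytotoxicity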
# [8] = target: T1, Sentrin-specific protease 8 (Homo sapiens, UniProt Q96LD8); format: functional
# T1 sequence (Q96LD8 whole entry): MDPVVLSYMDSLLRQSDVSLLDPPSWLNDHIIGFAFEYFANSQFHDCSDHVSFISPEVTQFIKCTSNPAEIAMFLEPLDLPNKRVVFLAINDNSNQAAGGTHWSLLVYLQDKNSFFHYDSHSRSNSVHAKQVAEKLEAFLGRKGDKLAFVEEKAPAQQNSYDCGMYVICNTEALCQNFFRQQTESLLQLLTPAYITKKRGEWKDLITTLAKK
# [9] = Trypanosoma cruzi growth suppression in host cells – NIH3T3 host cells, beta-gal luminescence, confirmation (AID 2044); format: functional, cell-based;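 also: intracellular parasites grown in NIH/3T3 mouse fibroblasts as host cells; luminescent beta-galactosidase reporter signal from transgenic T. cruzi replicating inside host cells; inhibitors lower the luminescence signal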
# [10] = NIH3T3 cell viability loss – ATP luminescence, mouse fibroblasts, counter-screen, dose response (AID 2010); format: functional, cell-based;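 also: cells exposed to compound for about 90 hours before reading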
# [11] = target: Heat shock protein HSP 90-alpha (Homo sapiens, UniProt P07900); format: functional, organism-based
# [12] = target: T2, Caspase-3 (Homo sapiens, UniProt P42574); assay: Dose-response confirmation of uHTS inhibitor hits of Sentrin-Specific Protease 8 in a Caspase-3 Fluorescence assay.; format: functional
# T2 sequence (P42574 whole entry): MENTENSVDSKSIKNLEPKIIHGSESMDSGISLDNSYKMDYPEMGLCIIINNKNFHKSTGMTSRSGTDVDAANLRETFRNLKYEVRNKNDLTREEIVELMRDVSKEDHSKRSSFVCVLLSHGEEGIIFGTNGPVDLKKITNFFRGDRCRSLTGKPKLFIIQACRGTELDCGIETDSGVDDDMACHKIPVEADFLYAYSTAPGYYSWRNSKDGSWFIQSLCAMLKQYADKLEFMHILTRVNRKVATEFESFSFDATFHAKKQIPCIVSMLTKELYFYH
# [13] = target: T1, Sentrin-specific protease 8; format: functional; remark: listed apart in the source
# [14] = non-specific 3'UTR reporter inhibition in Clone20-Shn3RL – cell-based, Renilla luciferase, cherry-picked, counter-screen for Shn3 inhibitor project, dose response (AID 624133); format: functional
# [15] = loss of viability in HepG2 cells – cell-based, CellTiter-Glo, cherry-picked, cytotoxicity control for Shn3 inhibitor project, dose response (AID 624134); format: functional
# [16] = cells; format: functional
# [17] = inhibitors of EBV LMP1 NF-kappaB signaling – cell-based, luciferase reporter, luminescence, dry powder, set 2, dose response (AID 624376); format: functional
# [18] = target: T3, Beta-lactamase (Pseudomonas aeruginosa, UniProt Q79MP6); assay: inhibition of IMP-1 beta-lactamase activity – biochemical, epi-absorbance, selectivity assay for VIM-2 inhibitor project, dose response (AID 1920)
# T3 sequence (Q79MP6 whole entry): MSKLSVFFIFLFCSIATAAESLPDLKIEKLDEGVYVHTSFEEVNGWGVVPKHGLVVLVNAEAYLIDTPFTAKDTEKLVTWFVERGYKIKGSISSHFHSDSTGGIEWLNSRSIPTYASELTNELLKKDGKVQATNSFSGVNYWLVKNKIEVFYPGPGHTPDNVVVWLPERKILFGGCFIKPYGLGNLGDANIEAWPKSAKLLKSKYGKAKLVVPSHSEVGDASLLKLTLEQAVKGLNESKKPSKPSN
# [19] = target: T3, Beta-lactamase; assay: […] counterscreen for selective VIM-2 inhibitors: dose response biochemical high throughput screening assay to identify inhibitors of IMP-1 metallo-beta-lactamase.
# [20] = target: Beta-lactamase (Salmonella choleraesuis (strain SC-B67), UniProt Q5J463); assay: Epi-absorbance-based counterscreen for selective VIM-2 inhibitors: dose response biochemical high throughput screening assay to identify inhibitors of TEM-1 serine-beta-lactamase.
# Chain of Beta-lactamase (Salmonella choleraesuis (strain SC-B67), UniProt Q5J463) (Q5J463 whole entry): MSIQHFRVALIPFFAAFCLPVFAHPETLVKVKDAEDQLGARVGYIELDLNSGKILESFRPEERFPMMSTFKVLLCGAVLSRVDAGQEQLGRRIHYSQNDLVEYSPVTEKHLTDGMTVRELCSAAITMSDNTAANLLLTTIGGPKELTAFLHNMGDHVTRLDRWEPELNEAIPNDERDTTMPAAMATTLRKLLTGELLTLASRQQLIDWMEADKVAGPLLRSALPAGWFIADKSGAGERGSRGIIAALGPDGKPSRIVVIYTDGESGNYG
# [21] = target: Protein disulfide-isomerase (Homo sapiens, UniProt P07237); assay: inhibition of PDI-mediated insulin reduction – biochemical, turbidity, dry powder samples, set 2, confirmation (AID 652146)
# Chain of Protein disulfide-isomerase (P07237 whole entry): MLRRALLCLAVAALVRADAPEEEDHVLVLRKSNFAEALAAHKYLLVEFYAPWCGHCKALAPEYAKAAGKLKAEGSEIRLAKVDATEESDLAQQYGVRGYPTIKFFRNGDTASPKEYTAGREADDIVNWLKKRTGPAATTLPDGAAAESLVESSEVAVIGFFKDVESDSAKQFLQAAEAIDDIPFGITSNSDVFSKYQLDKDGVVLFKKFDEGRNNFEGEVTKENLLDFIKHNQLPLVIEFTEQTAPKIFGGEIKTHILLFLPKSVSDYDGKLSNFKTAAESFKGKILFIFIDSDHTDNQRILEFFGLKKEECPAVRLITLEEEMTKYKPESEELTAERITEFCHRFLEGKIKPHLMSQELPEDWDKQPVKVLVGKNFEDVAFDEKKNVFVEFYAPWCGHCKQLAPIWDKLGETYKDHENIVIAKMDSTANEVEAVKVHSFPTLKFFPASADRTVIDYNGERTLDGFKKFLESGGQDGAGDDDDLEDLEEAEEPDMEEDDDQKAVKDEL
# [22] = TNFa-induced NF-kB reporter signal decrease – HEK293 LMP1 reporter cells, dry powder, set 2, selectivity assay for EBV LMP1 NF-kB inhibitor project, dose response (AID 624369); format: functional
# [23] = target: NS3 (Hepatitis C virus, UniProt A3EZJ3); assay: NS3h DNA-binding inhibition IC50 – biochemical, fluorescence polarization, ChemBridge library, dose response (AID 743264)
# Chain of NS3 (A3EZJ3 whole entry): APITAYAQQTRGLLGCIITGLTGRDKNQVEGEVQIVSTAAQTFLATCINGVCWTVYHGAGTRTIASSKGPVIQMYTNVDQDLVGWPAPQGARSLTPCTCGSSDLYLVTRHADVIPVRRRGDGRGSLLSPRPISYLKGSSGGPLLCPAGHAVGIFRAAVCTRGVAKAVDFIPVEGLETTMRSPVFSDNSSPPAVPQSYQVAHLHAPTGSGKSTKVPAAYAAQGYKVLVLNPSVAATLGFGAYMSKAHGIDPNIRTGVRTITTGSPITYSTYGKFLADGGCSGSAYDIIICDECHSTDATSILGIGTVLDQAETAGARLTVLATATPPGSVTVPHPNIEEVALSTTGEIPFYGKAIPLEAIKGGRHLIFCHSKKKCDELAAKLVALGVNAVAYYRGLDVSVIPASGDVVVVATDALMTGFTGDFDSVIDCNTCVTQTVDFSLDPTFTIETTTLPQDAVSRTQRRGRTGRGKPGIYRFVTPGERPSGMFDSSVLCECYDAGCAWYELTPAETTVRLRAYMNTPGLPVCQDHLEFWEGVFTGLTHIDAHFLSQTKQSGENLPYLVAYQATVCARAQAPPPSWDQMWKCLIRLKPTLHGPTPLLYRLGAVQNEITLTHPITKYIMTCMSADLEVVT
# [24] = target: Beta-2 adrenergic receptor (Homo sapiens, UniProt P07550); assay: Dose response for HTS for Beta-2AR agonists via FAP method from Powderset3.; format: functional
# Chain of Beta-2 adrenergic receptor (P07550 whole entry): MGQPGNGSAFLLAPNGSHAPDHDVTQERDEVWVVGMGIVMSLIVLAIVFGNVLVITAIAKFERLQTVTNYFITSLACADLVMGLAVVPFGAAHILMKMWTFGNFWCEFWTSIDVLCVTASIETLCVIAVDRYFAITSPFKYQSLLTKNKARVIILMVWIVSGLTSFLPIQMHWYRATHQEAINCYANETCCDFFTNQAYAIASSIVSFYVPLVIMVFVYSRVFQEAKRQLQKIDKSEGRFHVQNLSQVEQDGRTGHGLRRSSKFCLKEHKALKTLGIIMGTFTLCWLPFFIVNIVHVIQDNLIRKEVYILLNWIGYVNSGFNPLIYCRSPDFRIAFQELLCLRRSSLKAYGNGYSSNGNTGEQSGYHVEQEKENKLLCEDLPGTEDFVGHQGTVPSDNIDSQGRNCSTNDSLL
# [25] = target: Mu-type opioid receptor (Homo sapiens, UniProt P35372); assay: HTS Image-Based Screen for Agonists of the MOR Receptor. [Related pubchem assays (depositor defined):AID1777, AID1785, AID1786, AID2133]; format: functional;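 also: imaging of beta-arrestin GFP recruitment into spots after receptor activation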
# [26] = reduction of Shn3 3'UTR-driven luciferase in osteoblasts – cell-based, Clone20 osteoblasts, firefly luciferase, cherry-picked, dose response (AID 624132); format: functional;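 also: firefly luciferase luminescence from reporter carrying the Shn3 3'UTR in osteoblasts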
# [27] = target: T4, Kappa-type opioid receptor (Homo sapiens, UniProt P41145); format: functional
# T4 sequence (P41145 whole entry): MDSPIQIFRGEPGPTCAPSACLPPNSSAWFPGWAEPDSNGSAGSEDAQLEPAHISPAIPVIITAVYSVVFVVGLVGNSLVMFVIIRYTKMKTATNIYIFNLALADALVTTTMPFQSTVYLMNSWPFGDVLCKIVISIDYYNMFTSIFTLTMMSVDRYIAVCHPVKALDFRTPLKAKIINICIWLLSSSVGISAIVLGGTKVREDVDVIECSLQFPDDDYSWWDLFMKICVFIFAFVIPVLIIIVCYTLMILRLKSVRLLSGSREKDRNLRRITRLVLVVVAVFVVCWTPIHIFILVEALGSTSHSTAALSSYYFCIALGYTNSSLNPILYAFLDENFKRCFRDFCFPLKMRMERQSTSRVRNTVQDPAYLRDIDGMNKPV
# [28] = target: Beta Lactamase (Pseudomonas aeruginosa, UniProt Q932Y6); assay: BLA reporter interference, concentration series – BLA reporter cells, FRET fluorescence, artefact control for TLR9-MyD88 binding inhibitor project, dose response (AID 588341); format: cell-based;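 also: cell based assay in CHO-K1 cells stably expressing beta-lactamase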
# Chain of Beta Lactamase (Q932Y6 whole entry): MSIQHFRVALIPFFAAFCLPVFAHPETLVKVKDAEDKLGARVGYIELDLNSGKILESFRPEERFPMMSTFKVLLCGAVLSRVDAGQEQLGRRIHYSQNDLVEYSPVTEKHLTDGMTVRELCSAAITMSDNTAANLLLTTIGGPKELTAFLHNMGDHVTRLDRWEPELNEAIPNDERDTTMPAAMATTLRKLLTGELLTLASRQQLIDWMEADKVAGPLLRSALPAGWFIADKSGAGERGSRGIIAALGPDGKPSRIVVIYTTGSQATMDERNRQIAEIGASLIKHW
# [29] = target: T4, Kappa-type opioid receptor; format: functional; remark: listed apart in the source
# [30] = target: T5, Delta-type opioid receptor (Homo sapiens, UniProt P41143); assay: HTS Image-Based Screen for Agonists of the DOR Receptor. [Related pubchem assays (depositor defined):AID1777, AID1786, AID2133]; format: functional
# T5 sequence (P41143 whole entry, the tested form may be a part): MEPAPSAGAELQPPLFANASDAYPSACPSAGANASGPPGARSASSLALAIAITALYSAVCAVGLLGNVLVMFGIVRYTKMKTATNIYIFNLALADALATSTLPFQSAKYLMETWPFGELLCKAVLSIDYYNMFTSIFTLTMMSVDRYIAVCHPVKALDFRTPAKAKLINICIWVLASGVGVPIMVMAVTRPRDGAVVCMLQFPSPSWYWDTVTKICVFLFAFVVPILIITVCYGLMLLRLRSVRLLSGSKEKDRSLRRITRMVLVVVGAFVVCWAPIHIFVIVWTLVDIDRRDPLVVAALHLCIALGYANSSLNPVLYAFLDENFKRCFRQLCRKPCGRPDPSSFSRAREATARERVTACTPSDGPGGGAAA
# [31] = tested on: CHO; assay: CHO cell viability loss, potency – luminescence, cytotoxicity control for TLR9-MyD88 binding inhibitor project, dose response (AID 588339); format: functional, cell-based, hamster; details: Cricetulus griseus;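 also: CHO cells stably coexpressing TLR9 and MyD88 fusions from primary screen; compound exposure lasted 48 hours before viability readout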
# [32] = target: ATP-binding cassette sub-family B member 6 (Homo sapiens, UniProt Q9NP58); assay: ABCB6 transporter inhibitors, porphyrin accumulation, dose response, flow cytometry, K562-ABCB6 cells, cherry pick 02 (AID 624487); format: functional; details: read-out: EC50_MICROM
# [33] = target: T5, Delta-type opioid receptor; assay: HTS Image-Based Screen for Antagonists of the DOR Receptor. [Related pubchem assays (depositor defined):AID1777, AID1785, AID1786, AID2133]; format: functional
# [34] = target: T6, Protein RecA (Mycobacterium tuberculosis, UniProt P9WHJ3); assay: Fluorescence Cell-Free Homogeneous Dose Retest to Identify Inhibitors of RecA-Intein Splicing Activity. [Related pubchem assays (depositor defined):AID2097, AID2223, AID489010, AID492950]; format: functional
# T6 sequence (P9WHJ3 whole entry): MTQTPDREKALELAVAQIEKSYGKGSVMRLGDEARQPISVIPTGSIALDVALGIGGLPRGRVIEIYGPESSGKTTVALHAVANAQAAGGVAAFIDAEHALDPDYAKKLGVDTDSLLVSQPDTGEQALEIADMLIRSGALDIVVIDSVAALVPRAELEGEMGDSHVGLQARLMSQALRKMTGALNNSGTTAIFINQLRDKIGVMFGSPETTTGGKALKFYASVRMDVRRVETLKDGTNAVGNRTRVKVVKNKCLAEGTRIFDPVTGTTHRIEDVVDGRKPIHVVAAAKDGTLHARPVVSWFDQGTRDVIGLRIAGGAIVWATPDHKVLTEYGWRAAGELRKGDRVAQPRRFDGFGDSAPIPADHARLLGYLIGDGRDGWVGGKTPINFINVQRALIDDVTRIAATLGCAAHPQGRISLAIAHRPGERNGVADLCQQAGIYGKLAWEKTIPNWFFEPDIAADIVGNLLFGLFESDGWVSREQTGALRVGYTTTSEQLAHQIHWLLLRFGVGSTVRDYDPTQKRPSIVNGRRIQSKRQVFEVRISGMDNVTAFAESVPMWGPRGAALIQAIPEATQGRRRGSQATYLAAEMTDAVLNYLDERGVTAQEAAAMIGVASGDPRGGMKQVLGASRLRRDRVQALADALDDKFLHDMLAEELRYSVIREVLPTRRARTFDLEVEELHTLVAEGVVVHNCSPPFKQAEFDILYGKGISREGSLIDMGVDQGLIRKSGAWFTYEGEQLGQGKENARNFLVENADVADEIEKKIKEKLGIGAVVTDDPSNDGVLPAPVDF
# [35] = target: T7, Replicative DNA helicase DnaB (Mycobacterium tuberculosis, UniProt P9WMR3); assay: DnaB intein splicing inhibitors, dose response, biochemical, cell-free fluorescence (AID 449749); format: functional
# T7 sequence (P9WMR3 whole entry): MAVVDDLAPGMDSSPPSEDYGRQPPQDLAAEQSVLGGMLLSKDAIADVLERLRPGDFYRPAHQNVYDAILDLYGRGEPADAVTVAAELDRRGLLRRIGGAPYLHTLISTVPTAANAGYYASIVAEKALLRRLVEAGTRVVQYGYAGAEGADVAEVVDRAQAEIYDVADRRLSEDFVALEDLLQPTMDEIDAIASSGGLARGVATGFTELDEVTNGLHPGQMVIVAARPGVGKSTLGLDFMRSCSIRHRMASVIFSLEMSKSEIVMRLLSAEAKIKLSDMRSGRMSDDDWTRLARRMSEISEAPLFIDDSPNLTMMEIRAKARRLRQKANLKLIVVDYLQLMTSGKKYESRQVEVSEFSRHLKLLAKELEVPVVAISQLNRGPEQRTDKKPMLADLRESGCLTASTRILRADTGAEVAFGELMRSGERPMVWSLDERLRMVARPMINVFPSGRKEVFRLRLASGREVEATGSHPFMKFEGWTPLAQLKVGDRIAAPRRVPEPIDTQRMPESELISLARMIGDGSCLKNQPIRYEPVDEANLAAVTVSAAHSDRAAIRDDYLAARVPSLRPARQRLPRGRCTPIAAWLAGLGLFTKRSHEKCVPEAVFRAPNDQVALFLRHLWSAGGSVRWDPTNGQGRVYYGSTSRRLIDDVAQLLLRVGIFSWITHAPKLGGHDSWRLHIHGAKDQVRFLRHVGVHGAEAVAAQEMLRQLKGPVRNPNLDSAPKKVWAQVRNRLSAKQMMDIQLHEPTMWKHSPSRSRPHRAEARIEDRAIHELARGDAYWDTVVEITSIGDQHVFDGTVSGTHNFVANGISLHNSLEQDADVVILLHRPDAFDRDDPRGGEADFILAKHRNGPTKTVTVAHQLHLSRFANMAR
# [36] = target: Beta-galactosidase (Escherichia coli, UniProt Q8VNN2); format: functional
# Chain of Beta-galactosidase (Q8VNN2 whole entry): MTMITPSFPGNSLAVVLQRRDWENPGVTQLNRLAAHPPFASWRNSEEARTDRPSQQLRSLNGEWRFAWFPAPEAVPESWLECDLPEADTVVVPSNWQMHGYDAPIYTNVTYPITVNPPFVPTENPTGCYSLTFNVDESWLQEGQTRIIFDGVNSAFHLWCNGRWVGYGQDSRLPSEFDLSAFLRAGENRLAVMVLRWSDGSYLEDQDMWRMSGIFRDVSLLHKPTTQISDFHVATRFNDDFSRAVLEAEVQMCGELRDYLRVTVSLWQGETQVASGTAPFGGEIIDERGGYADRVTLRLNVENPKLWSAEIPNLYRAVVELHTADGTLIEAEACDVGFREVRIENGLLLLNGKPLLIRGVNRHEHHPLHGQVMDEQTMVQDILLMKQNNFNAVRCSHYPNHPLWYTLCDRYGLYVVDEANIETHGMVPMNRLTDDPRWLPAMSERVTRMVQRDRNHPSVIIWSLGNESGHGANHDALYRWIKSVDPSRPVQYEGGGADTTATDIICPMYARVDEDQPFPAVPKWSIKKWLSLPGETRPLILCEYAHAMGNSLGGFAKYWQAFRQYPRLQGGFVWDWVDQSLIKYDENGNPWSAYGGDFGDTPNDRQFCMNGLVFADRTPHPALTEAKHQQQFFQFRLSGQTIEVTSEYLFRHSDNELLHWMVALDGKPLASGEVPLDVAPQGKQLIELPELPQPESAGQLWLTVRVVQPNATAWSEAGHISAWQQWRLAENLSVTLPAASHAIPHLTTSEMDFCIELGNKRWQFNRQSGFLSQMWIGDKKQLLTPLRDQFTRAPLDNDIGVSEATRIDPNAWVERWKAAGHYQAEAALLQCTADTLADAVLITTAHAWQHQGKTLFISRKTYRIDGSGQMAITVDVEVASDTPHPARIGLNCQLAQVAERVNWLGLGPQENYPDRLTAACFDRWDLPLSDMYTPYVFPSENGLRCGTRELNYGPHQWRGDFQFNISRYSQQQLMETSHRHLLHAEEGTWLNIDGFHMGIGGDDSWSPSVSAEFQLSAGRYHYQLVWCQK
structure (smiles),measurement,setting,value
COc1cc([N+](=O)[O-])ccc1N=C(S)NNC(=O)c1ccc2c(c1)OCO2,AC50,[1],> 100 µM (inactive)
CC(C)(C)[S@@+]([O-])N1Cc2cc(C(=O)NCc3ccccc3F)nc(-c3cccc(-c4cccnc4)c3)c2[C@H]1CCO,AbsAC35,[2],245.66 µM
COc1cccc(NC(=O)c2ccc3c(c2)N(C)CCS3)c1,AC50,[3],26 µM (active)
COc1ccc(C(c2nnnn2Cc2ccccc2)N2CCN(C/C=C/c3ccccc3)CC2)cc1 (centres undefined),IC50,[4],> 69.5 µM (inactive)
same,IC50,[5],> 69.5 µM (inactive)
O=C1C(NS(=O)(=O)c2ccc(Br)s2)=C(N2CCOCC2)C(=O)c2ccccc21,AC50,[6],> 70 µM (inactive)
same,AC50,[7],> 70 µM (inactive)
CC(=O)N1N=C(c2ccccc2)OC1c1ccc([N+](=O)[O-])s1 (centres undefined),IC50,[8],6.39 µM (active)
same,EC50,[9],1.79 µM (active)
same,EC50,[10],10.8 µM (active)
same,AC50,[11],8.37 µM (active)
same,IC50,[12],48.3 µM (active)
same,IC50,[13],6.49 µM (active)
same,AC50,[14],14.3 µM (active)
same,AC50,[15],39.3 µM (active)
same,IC50,[16],43.3 µM (active)
COc1cccc(S(=O)(=O)N(C)C[C@@H]2Oc3cc(C4=CCCCC4)ccc3S(=O)(=O)N([C@@H](C)CO)C[C@@H]2C)c1,AbsAC35,[17],50.42 µM
S=c1[nH]nc(C2CC2)n1Cc1ccccc1,IC50,[18],> 59.6 µM (inactive)
same,IC50,[19],> 59.6 µM (inactive)
same,IC50,[20],> 59.6 µM (inactive)
C/C1=C\C[C@H](OC(=O)c2ccc(O)cc2)/C(C)=C/[C@@H](O)C(C)(C)CCC1,AC50,[21],2 µM (active)
O=C(C[C@@H]1CC[C@H]2[C@@H](COC[C@H](O)CN2Cc2ccc(Oc3ccccc3)cc2)O1)N1CCc2ccccc2C1,AbsAC35,[22],67.78 µM
O=C1NC(=O)C(=Cc2ccc(-c3cc([N+](=O)[O-])ccc3O)o2)C(=O)N1,IC50,[23],66.1 µM (active)
COCc1ccc(CN2CCCC(C(=O)Nc3ccc(-c4cccc(OC)c4)cc3)C2)o1 (centres undefined),EC50,[24],607 µM (inactive)
CCc1ccc(NC(=O)c2nc(S(=O)(=O)Cc3ccccc3)ncc2Cl)cc1,EC50,[25],> 32 µM (inactive)
same,AC50,[26],0.551 µM (active)
same,IC50,[27],7.28 µM
same,IC50,[28],12.1 µM (inactive)
same,IC50,[29],13.7 µM (active)
same,EC50,[30],> 32 µM (inactive)
same,IC50,[31],2.91 µM (active)
same,EC50,[32],23.9 µM (active)
same,AC50,[11],1.74 µM (active)
same,IC50,[33],11.9 µM (inactive)
same,EC50,[34],1.82 µM (active)
same,AC50,[35],2.28 µM (active)
same,AC50,[14],8.1 µM (active)
same,AC50,[15],24.4 µM (active)
same,EC50,[36],> 31.5 µM (inactive)
